Measurements published in the NIST ThermoML archive (doi:10.1021/je500792x).

Test: xn = mol fraction of the nth substance listed
Conditions: Gas, Buoyancy - hydrostatic balance with magnetic suspension - two sinkers

C [methane] + CCC
Conditions	mass density [kg/m3]
248.15 K, 120.09 kPa, x1 = 0.5069	1.7641
248.15 K, 129.19 kPa, x1 = 0.2658	2.3527
248.15 K, 129.2 kPa, x1 = 0.2658	2.353
248.15 K, 141.7 kPa, x1 = 0.2658	2.5862
248.15 K, 159.47 kPa, x1 = 0.2658	2.9223
248.15 K, 183.4 kPa, x1 = 0.5069	2.7164
248.15 K, 184.56 kPa, x1 = 0.2658	3.3988
248.15 K, 188.16 kPa, x1 = 0.2658	3.4688
248.15 K, 217.78 kPa, x1 = 0.2658	4.0405
248.15 K, 220.8 kPa, x1 = 0.2658	4.0982
248.15 K, 244.4 kPa, x1 = 0.5069	3.6498
248.15 K, 251.13 kPa, x1 = 0.2658	4.6926
248.15 K, 251.49 kPa, x1 = 0.2658	4.7012
248.15 K, 271.99 kPa, x1 = 0.2658	5.106
248.15 K, 275.99 kPa, x1 = 0.2658	5.1859
248.15 K, 303.31 kPa, x1 = 0.5069	4.5661
248.15 K, 360.5 kPa, x1 = 0.5069	5.4702
248.15 K, 424.87 kPa, x1 = 0.5069	6.5055
248.16 K, 96.6 kPa, x1 = 0.2658	1.7469
248.16 K, 390.04 kPa, x1 = 0.7498	4.4826
248.16 K, 500.33 kPa, x1 = 0.7498	5.7986
248.16 K, 580.7 kPa, x1 = 0.7498	6.7717
248.16 K, 685.07 kPa, x1 = 0.7498	8.0551
248.16 K, 786.24 kPa, x1 = 0.7498	9.3205
248.16 K, 835.6 kPa, x1 = 0.7498	9.9461
248.17 K, 276.07 kPa, x1 = 0.7498	3.1456
273.15 K, 123.94 kPa, x1 = 0.2658	2.0343
273.15 K, 149.35 kPa, x1 = 0.2658	2.4607
273.15 K, 167.49 kPa, x1 = 0.2658	2.7678
273.15 K, 198.96 kPa, x1 = 0.2658	3.3031
273.15 K, 218.04 kPa, x1 = 0.5069	2.9261
273.15 K, 242.18 kPa, x1 = 0.2658	4.0482
273.15 K, 247.99 kPa, x1 = 0.2658	4.1483
273.15 K, 258.4 kPa, x1 = 0.5069	3.4829
273.15 K, 262.29 kPa, x1 = 0.5069	3.5352
273.15 K, 269.26 kPa, x1 = 0.5069	3.6315
273.15 K, 277.28 kPa, x1 = 0.5069	3.7427
273.15 K, 300.07 kPa, x1 = 0.2658	5.0612
273.15 K, 309 kPa, x1 = 0.5069	4.1836
273.15 K, 321.34 kPa, x1 = 0.5069	4.3576
273.15 K, 323.08 kPa, x1 = 0.5069	4.3804
273.15 K, 340.35 kPa, x1 = 0.5069	4.6226
273.15 K, 344.34 kPa, x1 = 0.2658	5.85
273.15 K, 347.43 kPa, x1 = 0.2658	5.905
273.15 K, 396.65 kPa, x1 = 0.2658	6.7965
273.15 K, 401.7 kPa, x1 = 0.2658	6.8905
273.15 K, 402.73 kPa, x1 = 0.5069	5.504
273.15 K, 406.45 kPa, x1 = 0.2658	6.9764
273.15 K, 409.05 kPa, x1 = 0.5069	5.5939
273.15 K, 415.33 kPa, x1 = 0.5069	5.6832
273.15 K, 430.8 kPa, x1 = 0.2658	7.425
273.15 K, 441.3 kPa, x1 = 0.5069	6.0553
273.15 K, 445.43 kPa, x1 = 0.2658	7.6956
273.15 K, 453.52 kPa, x1 = 0.5069	6.2301
273.15 K, 486.1 kPa, x1 = 0.2658	8.4581
273.15 K, 491.06 kPa, x1 = 0.5069	6.7718
273.15 K, 491.24 kPa, x1 = 0.2658	8.5547
273.15 K, 491.73 kPa, x1 = 0.2658	8.5641
273.15 K, 492.46 kPa, x1 = 0.7498	5.1329
273.15 K, 497.16 kPa, x1 = 0.5069	6.8601
273.15 K, 500.89 kPa, x1 = 0.7498	5.2229
273.15 K, 503.23 kPa, x1 = 0.5069	6.9481
273.15 K, 506.93 kPa, x1 = 0.5069	7.0019
273.15 K, 537.7 kPa, x1 = 0.2658	9.4417
273.15 K, 542.15 kPa, x1 = 0.2658	9.5274
273.15 K, 556.33 kPa, x1 = 0.5069	7.7247
273.15 K, 562.21 kPa, x1 = 0.2658	9.9157
273.15 K, 568.57 kPa, x1 = 0.2658	10.0392
273.15 K, 598.52 kPa, x1 = 0.2658	10.627
273.15 K, 607.75 kPa, x1 = 0.5069	8.4837
273.15 K, 608.84 kPa, x1 = 0.2658	10.8307
273.15 K, 612.13 kPa, x1 = 0.5069	8.5493
273.15 K, 615.59 kPa, x1 = 0.2658	10.9644
273.15 K, 619.26 kPa, x1 = 0.5069	8.6551
273.15 K, 625.49 kPa, x1 = 0.5069	8.7476
273.15 K, 631.66 kPa, x1 = 0.5069	8.8402
273.15 K, 635.08 kPa, x1 = 0.2658	11.3537
273.15 K, 652.39 kPa, x1 = 0.2658	11.7011
273.15 K, 659.32 kPa, x1 = 0.2658	11.8408
273.15 K, 701.31 kPa, x1 = 0.5069	9.8889
273.15 K, 705.87 kPa, x1 = 0.5069	9.9584
273.15 K, 711.71 kPa, x1 = 0.5069	10.0475
273.15 K, 781.92 kPa, x1 = 0.5069	11.1241
273.15 K, 803.19 kPa, x1 = 0.5069	11.4547
273.15 K, 829.52 kPa, x1 = 0.5069	11.8643
273.15 K, 888.98 kPa, x1 = 0.5069	12.8024
273.15 K, 899.81 kPa, x1 = 0.7498	9.5966
273.15 K, 907.76 kPa, x1 = 0.5069	13.1006
273.15 K, 930.25 kPa, x1 = 0.5069	13.4618
273.15 K, 971.91 kPa, x1 = 0.5069	14.1337
273.15 K, 986.2 kPa, x1 = 0.5069	14.3651
273.15 K, 1000.4 kPa, x1 = 0.7498	10.7338
273.15 K, 1009.5 kPa, x1 = 0.5069	14.7469
273.15 K, 1015 kPa, x1 = 0.7498	10.9019
273.15 K, 1015.5 kPa, x1 = 0.5069	14.8424
273.15 K, 1041.7 kPa, x1 = 0.5069	15.2749
273.15 K, 1299.2 kPa, x1 = 0.7498	14.1894
273.15 K, 1500.9 kPa, x1 = 0.7498	16.5996
273.15 K, 1510.9 kPa, x1 = 0.7498	16.7231
273.15 K, 1700.4 kPa, x1 = 0.7498	19.0432
273.15 K, 1998.9 kPa, x1 = 0.7498	22.8321
273.15 K, 1999.7 kPa, x1 = 0.7498	22.8429
273.15 K, 2002 kPa, x1 = 0.7498	22.875
273.15 K, 2303.6 kPa, x1 = 0.7498	26.8673
293.14 K, 149.9 kPa, x1 = 0.2658	2.2913
293.14 K, 469.3 kPa, x1 = 0.2658	7.4652
293.14 K, 568.75 kPa, x1 = 0.2658	9.168
293.14 K, 1056.3 kPa, x1 = 0.2658	18.3225
293.14 K, 1105.7 kPa, x1 = 0.2658	19.3404
293.14 K, 1807.2 kPa, x1 = 0.5069	25.9503
293.15 K, 258.04 kPa, x1 = 0.2658	3.9961
293.15 K, 355.08 kPa, x1 = 0.2658	5.5657
293.15 K, 393.88 kPa, x1 = 0.5069	4.9714
293.15 K, 613.82 kPa, x1 = 0.5069	7.8849
293.15 K, 655.65 kPa, x1 = 0.2658	10.6963
293.15 K, 803.74 kPa, x1 = 0.5069	10.489
293.15 K, 857.4 kPa, x1 = 0.2658	14.4071
293.15 K, 955.25 kPa, x1 = 0.2658	16.2977
293.15 K, 1006.2 kPa, x1 = 0.5069	13.3634
